Where two headings read alike, the source gives them in different places.
Molecular target: T1, IRAK4 (Homo sapiens, UniProt Q9NWZ3)
T1 construct: endogenous in cells; host or cells: Karpas299
T1 sequence (Q9NWZ3 1-460): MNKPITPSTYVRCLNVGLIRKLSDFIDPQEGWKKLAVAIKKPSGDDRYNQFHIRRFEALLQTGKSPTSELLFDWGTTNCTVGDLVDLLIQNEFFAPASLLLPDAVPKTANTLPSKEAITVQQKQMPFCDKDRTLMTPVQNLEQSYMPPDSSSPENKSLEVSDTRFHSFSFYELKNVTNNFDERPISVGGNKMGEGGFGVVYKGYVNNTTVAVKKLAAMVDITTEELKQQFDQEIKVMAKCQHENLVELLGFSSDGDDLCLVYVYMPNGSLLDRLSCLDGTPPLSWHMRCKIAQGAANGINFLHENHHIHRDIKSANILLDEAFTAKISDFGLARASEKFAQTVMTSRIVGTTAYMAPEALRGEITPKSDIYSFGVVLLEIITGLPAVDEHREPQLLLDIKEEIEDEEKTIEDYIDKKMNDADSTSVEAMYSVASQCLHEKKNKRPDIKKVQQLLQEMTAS
Test: IRAK4 Degradation Assay (Karpas299, HTRF/TR-FRET)
Format: cell-based
Conditions: Karpas-299 cells; for Dmax: maximum percentage of degradation
Method in brief: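 Karpas299 cells at 0.2 million per well were exposed to serially diluted compounds for 24 h or 5 h, then lysed. IRAK4 remaining in lysates was quantified by HTRF (665/620 nm) after overnight antibody incubation at room temperature. Percent degradation was fitted to a four-parameter curve to give IC50 (DC50).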

[1] = 24 h treatment, read-out: IRAK4 in Karpas-299 (24 h) Dmax (%)
[2] = 24 h treatment, read-out: IRAK4 in Karpas-299 (24 h) DC50
[3] = 5 h treatment, read-out: IRAK4 in Karpas-299 (5 h) Dmax (%)
[4] = 5 h treatment, read-out: IRAK4 in Karpas-299 (5 h) DC50

Dmax [1] [%]	DC50 [2] [nM]	Dmax [3] [%]	DC50 [4] [nM]	Compound
99	1.9			O=C1CC[C@H](c2c(F)cc(N3CC[C@@H](C(=O)N4CCN([C@H]5CC[C@H](n6cc7cc(NC(=O)c8cccc(C(F)(F)F)n8)c(C(=O)NC8CC8)cc7n6)CC5)CC4)C3)cc2F)C(=O)N1 [Example 129, N-cyclopropyl-2-((1R,4r)-4-(4-((R)-1-(4-((R)-2,6-dioxopiperidin-3-yl)-3,5-difluorophenyl)pyrrolidine-3-carbonyl)piperazin-1-yl)cyclohexyl)-5-(6-(trifluoromethyl)picolinamido)-2H-indazole-6-carboxamide]
94	1.6			CC(C)(O)c1cc2nn([C@H]3CC[C@H](N4CCN(C(=O)[C@@H]5CCN(c6cc(F)c([C@H]7CCC(=O)NC7=O)c(F)c6)C5)CC4)CC3)cc2cc1NC(=O)c1ccc2c(n1)C(F)(F)CCC2 [Example 172, N-(2-((1R,4r)-4-(4-((R)-1-(4-((R)-2,6-dioxopiperidin-3-yl)-3,5-difluorophenyl)pyrrolidine-3-carbonyl)piperazin-1-yl)cyclohexyl)-6-(2-hydroxypropan-2-yl)-2H-indazol-5-yl)-8,8-difluoro-5,6,7,8-tetrahydroquinoline-2-carboxamide]
94	2.7	84	7.5	O=C1CCN(c2ccc(N3CC(C(=O)N4CCN([C@H]5CC[C@H](n6cc(NC(=O)c7coc(-c8ccnc(NCC(F)(F)F)c8)n7)c(C(F)F)n6)CC5)CC4)C3)cc2)C(=O)N1 [Example 13, N-(3-(difluoromethyl)-1-((1r,4r)-4-(4-(1-(4-(2,4-dioxotetrahydropyrimidin-1(2H)-yl)phenyl)azetidine-3-carbonyl)piperazin-1-yl)cyclohexyl)-1H-pyrazol-4-yl)-2-(2-((2,2,2-trifluoroethyl)amino)pyridin-4-yl)oxazole-4-carboxamide]
4	> 1000			CC(C)(O)c1cc2nn([C@H]3CC[C@H](N4CCN(C(=O)/C=C/C56CC7CC(CC(C7)C5)C6)CC4)CC3)cc2cc1NC(=O)c1ccc2cc(C#N)cnn12 [Example 441, N-(2-((1r,4r)-4-(4-((E)-3-(adamantan-1-yl)acryloyl)piperazin-1-yl)cyclohexyl)-6-(2-hydroxypropan-2-yl)-2H-indazol-5-yl)-3-cyanopyrrolo[1,2-b]pyridazine-7-carboxamide]
80	183			CC(C)(O)c1cc2nn([C@H]3CC[C@H](N4CCN(c5ccc(CCC(=O)NC6CCC(=O)NC6=O)cc5)CC4)CC3)cc2cc1NC(=O)c1ccc2cc(C#N)cnn12 (stereo partly drawn) [Example 440, 3-cyano-N-(2-((1r,4r)-4-(4-(4-(3-((2,6-dioxopiperidin-3-yl)amino)-3-oxopropyl)phenyl)piperazin-1-yl)cyclohexyl)-6-(2-hydroxypropan-2-yl)-2H-indazol-5-yl)pyrrolo[1,2-b]pyridazine-7-carboxamide]
94	8.9			CC(C)c1cc(-c2nc(C(=O)Nc3cn([C@H]4CC[C@H](N5CCN(C(=O)C6CN(c7cc(F)c([C@H]8CCC(=O)NC8=O)c(F)c7)C6)CC5)CC4)nc3C(F)F)co2)ccn1 [Example 86, N-(3-(difluoromethyl)-1-((1r,4r)-4-(4-(1-(4-((R)-2,6-dioxopiperidin-3-yl)-3,5-difluorophenyl)azetidine-3-carbonyl)piperazin-1-yl)cyclohexyl)-1H-pyrazol-4-yl)-2-(2-isopropylpyridin-4-yl)oxazole-4-carboxamide]
96	6.8			CCC(C)c1cc(-c2nc(C(=O)Nc3cn([C@H]4CC[C@H](N5CCN(C(=O)[C@@H]6CCN(c7cc(F)c([C@H]8CCC(=O)NC8=O)c(F)c7)C6)CC5)CC4)nc3C(F)F)co2)ccn1 (stereo partly drawn) [Example 170, 2-(2-(sec-butyl)pyridin-4-yl)-N-(3-(difluoromethyl)-1-((1R,4r)-4-(4-((R)-1-(4-((R)-2,6-dioxopiperidin-3-yl)-3,5-difluorophenyl)pyrrolidine-3-carbonyl)piperazin-1-yl)cyclohexyl)-1H-pyrazol-4-yl)oxazole-4-carboxamide]
9	> 10000			CC(C)(O)c1cc2nn([C@H]3CC[C@H](N4CCN(C(=O)C5CN(c6cc(F)c([C@H]7CCC(=O)NC7=O)c(F)c6)C5)CC4)CC3)cc2cc1NC(=O)c1cnn2cc(C#N)cnc12 [Example 411, 6-cyano-N-(2-((1r,4r)-4-(4-(1-(4-((R)-2,6-dioxopiperidin-3-yl)-3,5-difluorophenyl)azetidine-3-carbonyl)piperazin-1-yl)cyclohexyl)-6-(2-hydroxypropan-2-yl)-2H-indazol-5-yl)pyrazolo[1,5-a]pyrimidine-3-carboxamide]
99	2.2			O=C1CC[C@H](c2c(F)cc(N3CC[C@@H](C(=O)N4CCN([C@H]5CC[C@H](n6cc(NC(=O)c7coc(-c8ccnc(NCC9CC9)c8)n7)c(C(F)F)n6)CC5)CC4)C3)cc2F)C(=O)N1 [Example 26, 2-(2-((cyclopropylmethyl)amino)pyridin-4-yl)-N-(3-(difluoromethyl)-1-((1R,4r)-4-(4-((R)-1-(4-((R)-2,6-dioxopiperidin-3-yl)-3,5-difluorophenyl)pyrrolidine-3-carbonyl)piperazin-1-yl)cyclohexyl)-1H-pyrazol-4-yl)oxazole-4-carboxamide]
30	> 10000			O=C1CCN(c2ccc(N3CC[C@H](C(=O)N4CCN([C@H]5CC[C@H](n6cc(NC(=O)c7coc(-c8ccnc(NCC(F)(F)F)c8)n7)c(C(F)F)n6)CC5)CC4)C3)cc2)C(=O)N1 [Example 15, N-(3-(difluoromethyl)-1-((1S,4r)-4-(4-((S)-1-(4-(2,4-dioxotetrahydropyrimidin-1(2H)-yl)phenyl)pyrrolidine-3-carbonyl)piperazin-1-yl)cyclohexyl)-1H-pyrazol-4-yl)-2-(2-((2,2,2-trifluoroethyl)amino)pyridin-4-yl)oxazole-4-carboxamide]
96	3.1			O=C1CC[C@H](c2c(F)cc(N3CC(C(=O)N4CCN(c5ccc(-n6cc(NC(=O)c7coc(-c8ccnc(NCC9CC9)c8)n7)c(C(F)F)n6)cn5)CC4)C3)cc2F)C(=O)N1 [Example 90]
98	6.3	88	16	COc1cc2nn(C3CCN(C4CCN(C(=O)C5CN(c6cc(F)c([C@H]7CCC(=O)NC7=O)c(F)c6)C5)CC4)CC3)cc2cc1NC(=O)c1cccc(C(F)(F)F)n1 [Example 45, (R)—N-(2-(1′-(1-(4-(2,6-dioxopiperidin-3-yl)-3,5-difluorophenyl)azetidine-3-carbonyl)-[1,4′-bipiperidin]-4-yl)-6-methoxy-2H-indazol-5-yl)-6-(trifluoromethyl)picolinamide]
95	6			O=C1CCN(c2ccc(N3CC[C@@H](C(=O)N4CCN([C@H]5CC[C@H](n6cc(NC(=O)c7coc(-c8ccnc(NCC9CC9)c8)n7)c(C(F)F)n6)CC5)CC4)C3)cc2)C(=O)N1 [Example 23, 2-(2-((cyclopropylmethyl)amino)pyridin-4-yl)-N-(3-(difluoromethyl)-1-((1R,4r)-4-(4-((R)-1-(4-(2,4-dioxotetrahydropyrimidin-1(2H)-yl)phenyl)pyrrolidine-3-carbonyl)piperazin-1-yl)cyclohexyl)-1H-pyrazol-4-yl)oxazole-4-carboxamide]

Reference: patent publication US20250195513A1, “DEGRADATION OF IRAK4 BY CONJUGATION OF IRAK4 INHIBITORS WITH E3 LIGASE LIGAND AND METHODS OF USE” (BeiGene, Ltd., priority 2022, published 2025)
